Consider 26 compounds from US9527832B2, “Substituted condensed pyrimidine compounds” (GRÜNENTHAL GMBH, priority 2013, dated 2016).

The assay concerns the target T1, human PDE4B1 (Homo sapiens, UniProt Q07343).
T1 construct: host or cells: Sf9 cells
As to the kind of experiment: cAMP HTRF assay to determine the activity of hPDE4B1. The class given is biochemical. Conditions: for inhibition at 1 µM: Percentage inhibition of PDE4B at 1 μM test concentration; for IC50: dose response measurements with eight concentrations, reported as ranges, read-out: IC50. In short, it runs like this:
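Sf9-expressed recombinant human PDE4B1 (4.8 U) in Tris-HCl/MgCl2/DTT/Tween 20 buffer pH 7.8, with cAMP at 40 nM final, 30 min at room temperature. Reaction stopped with IBMX 1 mM; remaining cAMP detected by HTRF (665/620 nm ratio). IC50 from eight-point dose-response, n=2.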
A general note: Time-resolved FRET reads energy transfer from a long-lived donor to a nearby acceptor.

Broadly, the inhibition is the change of the read-out against control, counted positive when it falls. A word on the IC50: it is the midpoint of a concentration-inhibition curve.

T1 sequence (Q07343 whole entry): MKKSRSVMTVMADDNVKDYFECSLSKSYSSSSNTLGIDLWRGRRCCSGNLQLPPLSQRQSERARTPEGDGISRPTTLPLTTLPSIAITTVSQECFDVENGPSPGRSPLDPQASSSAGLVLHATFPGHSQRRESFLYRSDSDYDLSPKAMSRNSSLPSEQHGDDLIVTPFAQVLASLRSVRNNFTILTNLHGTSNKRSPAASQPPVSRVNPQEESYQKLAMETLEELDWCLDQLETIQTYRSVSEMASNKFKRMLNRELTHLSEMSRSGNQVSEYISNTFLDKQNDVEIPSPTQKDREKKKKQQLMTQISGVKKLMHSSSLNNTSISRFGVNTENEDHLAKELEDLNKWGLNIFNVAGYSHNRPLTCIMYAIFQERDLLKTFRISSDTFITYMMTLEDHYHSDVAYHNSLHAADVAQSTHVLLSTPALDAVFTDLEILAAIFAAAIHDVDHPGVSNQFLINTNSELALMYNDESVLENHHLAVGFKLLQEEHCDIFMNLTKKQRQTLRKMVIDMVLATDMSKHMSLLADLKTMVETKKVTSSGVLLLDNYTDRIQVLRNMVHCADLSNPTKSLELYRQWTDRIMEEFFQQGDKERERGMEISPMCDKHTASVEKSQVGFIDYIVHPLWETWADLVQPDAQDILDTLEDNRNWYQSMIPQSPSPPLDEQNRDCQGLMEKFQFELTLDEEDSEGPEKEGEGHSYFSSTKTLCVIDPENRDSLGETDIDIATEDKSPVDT

Take `CN(C)C(=O)COc1ccc2cnn(-c3nc(-c4ccc(Cl)s4)nc4c3C[S+]([O-])C4)c2c1` (centres unmarked) [Compound No. 2-72, 2-((1-(2-(5-Chlorothiophen-2-yl)-6-oxido-5,7-dihydrothieno[3,4-d]pyrimidin-4-yl)-1H-indazol-6-yl)oxy)-N,N-dimethylacetamide]: the inhibition at 1 µM is 102% and the IC50 was under 0.1 µM.
As for `CN(C)C(=O)COc1ccc2c(c1)N(c1nc(-c3ccc(C(N)=O)s3)nc3c1CCC3)CC2` [2-85, 5-(4-(6-(2-(Dimethylamino)-2-oxoethoxy)indolin-1-yl)-6,7-dihydro-5H-cyclopenta[d]pyrimidin-2-yl)thiophene-2-carboxamide], the inhibition at 1 µM was determined as 99%.
Regarding `CN(C)C(=O)COc1ccc2c(c1)N(c1nc(-c3ccc(S(C)(=O)=O)cc3)nc3c1C[S+]([O-])C3)CC2` (centres unmarked) [2-106, N,N-Dimethyl-2-[[1-[2-(4-methylsulfonyl-phenyl)-6-oxo-5,7-dihydro-thieno[3,4-d]pyrimidin-4-yl]-2,3-dihydro-1H-indol-6-yl]oxy]-acetamide], the inhibition at 1 µM worked out at 104% and the IC50 was under 0.1 µM.
For `CN(C)C(=O)COc1ccc2c(c1)N(c1nc(-c3ccc4sccc4c3)nc3c1C[S+]([O-])C3)CC2` (centres unmarked) [2-155, 2-[[1-[2-(Benzo[b]thiophen-5-yl)-6-oxo-5,7-dihydro-thieno[3,4-d]pyrimidin-4-yl]-2,3-dihydro-1H-indol-6-yl]oxy]-N,N-dimethyl-acetamide] the same measures were 102% and under 0.1 µM.
Take `O=C(COc1ccc2c(c1)N(c1nc(-c3ccc(Cl)s3)nc3c1CCC3)CC2)N1CCC1` [Compound No. 2-127, 1-(Azetidin-1-yl)-2-((1-(2-(5-chlorothiophen-2-yl)-6,7-dihydro-5H-cyclopenta[d]pyrimidin-4-yl)indolin-6-yl)oxy)ethanone]: the inhibition at 1 µM is 43%.
On the same count and under the same terms, the same measure for `CN(C)CCOc1ccc2c(c1)N(c1nc(-c3ccc(Cl)s3)nc3c1CCC3)CC2` [Compound No. 3-7, 2-((1-(2-(5-Chlorothiophen-2-yl)-6,7-dihydro-5H-cyclopenta[d]-pyrimidin-4-yl)indolin-6-yl)oxy)-N,N-dimethylethanamine]: 48%; for `CN1CCN(C(=O)COc2ccc3c(c2)N(c2nc(-c4ccc(Cl)s4)nc4c2CCC4)CC3)CC1` [Compound No. 2-129, 2-((1-(2-(5-Chlorothiophen-2-yl)-6,7-dihydro-5H-cyclopenta[d]pyrimidin-4-yl)indolin-6-yl)oxy)-1-(4-methylpiperazin-1-yl)ethanone]: 48%.
Take `Cc1ccccc1-c1nc2c(c(N3CCc4ccc(OCC(=O)N(C)C)cc43)n1)C[S+]([O-])C2` (centres unmarked) [2-94, N,N-Dimethyl-2-[[1-(2-o-tolyl-6-oxo-5,7-dihydro-thieno[3,4-d]pyrimidin-4-yl)-2,3-dihydro-1H-indol-6-yl]oxy]-acetamide]: the inhibition at 1 µM stood at 91% and the IC50 was 0.1 to 1 µM.
For the compound `O=C(O)c1ccc2c(ccn2-c2nc(-c3ccc(Cl)s3)nc3c2CCC3)c1` [Compound No. 1-70, 1-(2-(5-Chlorothiophen-2-yl)-6,7-dihydro-5H-cyclopenta[d]pyrimidin-4-yl)-1H-indole-5-carboxylic acid], the inhibition at 1 µM was 61% and the IC50 lay in the range of 0.1 to 1 µM.
On to `CN(C)C(=O)COc1ccc2c(c1)N(c1nc(-c3ccc(Cl)s3)nc3c1CCC3)CC2` [Compound No. 2-42, 2-((1-(2-(5-Chlorothiophen-2-yl)-6,7-dihydro-5H-cyclopenta[d]pyrimidin-4-yl)indolin-6-yl)oxy)-N,N-dimethylacetamide], for which the inhibition at 1 µM is 79% and the IC50 was under 0.1 µM.
For `COc1ccc(-c2nc3c(c(N4CCc5cc(CC(=O)O)ccc54)n2)C[S+]([O-])C3)cc1Cl` (centres unmarked) [Compound No. 1-8, 2-(1-(2-(3-Chloro-4-methoxyphenyl)-6-oxido-5,7-dihydrothieno[3,4-d]pyrimidin-4-yl)indolin-5-yl)acetic acid] the same measures were 102% and under 0.1 µM.
Taken in the same sequence, the figures for `CN(C)C(=O)COc1ccc2c(c1)N(c1nc(-c3cncnc3)nc3c1C[S+]([O-])C3)CC2` (centres unmarked) [2-144, N,N-Dimethyl-2-[[1-(6-oxo-2-pyrimidin-5-yl-5,7-dihydro-thieno[3,4-d]pyrimidin-4-yl)-2,3-dihydro-1H-indol-6-yl]oxy]-acetamide] were 92% and 0.1 to 1 µM.
For `O=C(O)Cc1ccc2c(c1)CCN2c1nc(-c2ccc(F)s2)nc2c1C[S+]([O-])C2` (centres unmarked) [Compound No. 1-24, 2-(1-(2-(5-Fluorothiophen-2-yl)-6-oxido-5,7-dihydrothieno[3,4-d]pyrimidin-4-yl)indolin-5-yl)acetic acid] the same measures were 111% and under 0.1 µM.
Consider `CN(C)C(=O)COc1ccc2c(c1)N(c1nc(-c3cnc4ccccc4c3)nc3c1C[S+]([O-])C3)CC2` (centres unmarked) [2-146, N,N-Dimethyl-2-[[1-(6-oxo-2-quinolin-3-yl-5,7-dihydro-thieno[3,4-d]pyrimidin-4-yl)-2,3-dihydro-1H-indol-6-yl]oxy]-acetamide], for which the inhibition at 1 µM was found to be 104% and the IC50 is under 0.1 µM.
For `COc1ccc(-c2nc3c(c(N4CCc5cc(CC(=O)O)ccc54)n2)CCC3)cc1F` [Compound No. 1-1, 2-(1-(2-(3-Fluoro-4-methoxyphenyl)-6,7-dihydro-5H-cyclopenta[d]-pyrimidin-4-yl)indolin-5-yl)acetic acid] the same measures were 102% and under 0.1 µM.
Taken in the same sequence, the figures for `CN(C)C(=O)COc1ccc2c(c1)N(c1nc(-c3ccccc3C(F)(F)F)nc3c1C[S+]([O-])C3)CC2` (centres unmarked) [2-97, N,N-Dimethyl-2-[[1-[6-oxo-2-[2-(trifluoromethyl)-phenyl]-5,7-dihydro-thieno[3,4-d]pyrimidin-4-yl]-2,3-dihydro-1H-indol-6-yl]oxy]-acetamide] were 93% and 0.1 to 1 µM.
For `CN(C)C(=O)COc1ccc2c(c1)N(c1nc(-c3ccc(Cl)s3)nc3c1CS(=O)(=O)C3)CC2` [Compound No. 2-45, 2-((1-(2-(5-Chlorothiophen-2-yl)-6,6-dioxido-5,7-dihydrothieno[3,4-d]pyrimidin-4-yl)indolin-6-yl)oxy)-N,N-dimethylacetamide] the same measures were 105% and under 0.1 µM.
In the case of `O=C(O)Cc1ccc2c(c1)CCN2c1nc(-c2cncs2)nc2c1CCC2` [Compound No. 1-17, 2-(1-(2-(Thiazol-5-yl)-6,7-dihydro-5H-cyclopenta[d]pyrimidin-4-yl)indolin-5-yl)acetic acid], the inhibition at 1 µM was 83% and the half-maximal inhibitory concentration (IC50) was in the range of 0.1 to 1 µM.
Take `CN(C)C(=O)COc1ccc2c(c1)N(c1nc(-c3cccc4[nH]ccc34)nc3c1C[S+]([O-])C3)CC2` (centres unmarked) [2-151, 2-[[1-[2-(1H-Indol-4-yl)-6-oxo-5,7-dihydro-thieno[3,4-d]pyrimidin-4-yl]-2,3-dihydro-1H-indol-6-yl]oxy]-N,N-dimethyl-acetamide]: the inhibition at 1 µM is 108% and the IC50 was under 0.1 µM.
Regarding `CN(C)C(=O)COc1ccc2c(c1)N(c1nc(-c3ccc(C(N)=O)s3)nc3c1CS(=O)(=O)C3)CC2` [Compound No. 2-81, 5-(4-(6-(2-(Dimethylamino)-2-oxoethoxy)indolin-1-yl)-6,6-dioxido-5,7-dihydrothieno[3,4-d]pyrimidin-2-yl)thiophene-2-carboxamide], the IC50 was under 0.1 µM. Also, the inhibition at 0.1 µM (Percentage inhibition of PDE4B at 0.1 μM test concentration, read-out: Inhibition [%] (inh. at 0.1 μM)) worked out at 113%.
Consider `O=C(O)c1ccc2c(c1)ncn2-c1nc(-c2ccc(Cl)s2)nc2c1CCC2` (single isomer, unassigned) [Compound No. 1-63, 1-(2-(5-Chlorothiophen-2-yl)-6,7-dihydro-5H-cyclopenta[d]pyrimidin-4-yl)-1H-benzo[d]imidazole-5-carboxylic acid], for which the inhibition at 1 µM was 35%.
As for `COc1ccc(-c2nc3c(c(N4CCc5ccc(OCC(=O)N(C)C)cc54)n2)C[S+]([O-])C3)nc1` (centres unmarked) [Compound No. 2-141, 2-((1-(2-(5-Methoxypyridin-2-yl)-6-oxido-5,7-dihydrothieno[3,4-d]pyrimidin-4-yl)indolin-6-yl)oxy)-N,N-dimethylacetamide], the inhibition at 1 µM was 98% and the half-maximal inhibitory concentration (IC50) was under 0.1 µM.
For the compound `O=C(O)Cc1ccc2c(cnn2-c2nc(-c3ccc(Cl)s3)nc3c2CCC3)c1` [Compound No. 1-61, 2-(1-(2-(5-Chlorothiophen-2-yl)-6,7-dihydro-5H-cyclopenta[d]-pyrimidin-4-yl)-1H-indazol-5-yl)acetic acid], the inhibition at 1 µM is 82% and the 50% inhibitory concentration (IC50) lay within 0.1 to 1 µM.
`CN(C)C(=O)COc1ccc2c(c1)N(c1nc(-c3ccc(C#N)s3)nc3c1C[S+]([O-])C3)CC2` (centres unmarked) [Compound No. 2-82, 2-((1-(2-(5-Cyanothiophen-2-yl)-6-oxido-5,7-dihydrothieno[3,4-d]pyrimidin-4-yl)indolin-6-yl)oxy)-N,N-dimethylacetamide]: the inhibition at 1 µM was 99% and the IC50 was under 0.1 µM.
Taken in the same sequence, the figures for `NC(=O)COc1ccc2c(c1)N(c1nc(-c3ccc(Cl)s3)nc3c1CS(=O)(=O)C3)CC2` [Compound No. 2-59, 2-((1-(2-(5-Chlorothiophen-2-yl)-6,6-dioxido-5,7-dihydrothieno[3,4-d]pyrimidin-4-yl)indolin-6-yl)oxy)acetamide] were 76% and 0.1 to 1 µM.
For the compound `CN(C)C(=O)COc1ccc2c(c1)N(c1nc(-c3ccc(Cl)c(F)c3)nc3c1C[S+]([O-])C3)CC2` (centres unmarked) [Compound No. 2-78, 2-((1-(2-(4-Chloro-3-fluorophenyl)-6-oxido-5,7-dihydrothieno[3,4-d]pyrimidin-4-yl)indolin-6-yl)oxy)-N,N-dimethylacetamide], the inhibition at 1 µM was 105% and the IC50 was under 0.1 µM.
